Source: patent publication US20120065123A1, “Synthetic Antibodies” (priority 2009, published 2012)
pKd: −log10 of the molar value. Bridges are numbered along the chain shown (N, C = ends). Roman numbers before positions name the chains, in order. Where no end group is shown, it is not given here. The star is where a group is joined. StBu = CC(C)(C)S*

How the values were obtained:
Transferrin [1] = biological target: T1, Transferrin (Homo sapiens, UniProt P02787); assay: SPR solution phase KD of candidate affinity elements, transferrin immobilized (Biacore T100); format: binding; conditions: steady-state response, 25° C., PBST
T1 sequence (P02787 20-698): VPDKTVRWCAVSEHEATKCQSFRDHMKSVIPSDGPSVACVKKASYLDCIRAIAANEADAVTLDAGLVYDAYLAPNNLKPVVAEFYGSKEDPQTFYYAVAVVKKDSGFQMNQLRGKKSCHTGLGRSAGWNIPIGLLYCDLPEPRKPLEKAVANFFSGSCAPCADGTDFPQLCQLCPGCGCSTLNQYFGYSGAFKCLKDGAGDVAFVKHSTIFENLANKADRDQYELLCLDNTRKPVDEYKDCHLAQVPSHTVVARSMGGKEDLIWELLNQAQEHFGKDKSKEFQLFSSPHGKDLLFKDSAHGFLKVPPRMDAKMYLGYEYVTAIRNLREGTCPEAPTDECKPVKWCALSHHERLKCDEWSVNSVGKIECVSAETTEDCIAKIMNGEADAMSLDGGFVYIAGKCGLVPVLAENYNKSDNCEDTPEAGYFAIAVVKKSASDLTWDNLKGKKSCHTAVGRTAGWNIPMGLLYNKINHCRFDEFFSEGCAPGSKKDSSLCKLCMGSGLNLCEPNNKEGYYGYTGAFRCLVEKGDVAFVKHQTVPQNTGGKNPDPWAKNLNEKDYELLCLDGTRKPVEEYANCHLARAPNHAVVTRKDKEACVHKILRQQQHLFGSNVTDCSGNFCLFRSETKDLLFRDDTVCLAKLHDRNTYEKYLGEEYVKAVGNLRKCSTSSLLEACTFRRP
Procedure: Transferrin 25 μg/ml in immobilization buffer selected for correct pH was then applied 302 at a flow rate of 5 to 10 μl/min for a contact time of about 5 to 10 minutes, allowing the amine functionality on the transferrin 308 to displace the activated NHS ester and bond to the surface via an amide bond. Finally, ethylene diamine (1M ethylene diamine-HCl at pH 8.5) was applied 304 at a flow rate of 5 to 10 μl/min for a contact time of about 6 to 7 minutes to deactivate any remaining reactive groups on the dextran chip surface. Flow rates and contact times are adjusted as necessary to provide the surface concentration of target desired for the intended application, and may vary by target. In general, for evaluating whether binding occurs, it is preferable to immobilize a relatively large quantity of target, and higher flow rates and/or longer contact times may be used. For determining kinetics, it is preferable to limit the amount of target immobilized so as to minimize rebinding and avidity effects, and lower flow rates and/or contact times may be used.
Candidate affinity elements for the transferrin synbody TRF19, TRF21, TRF23, TRF24, TRF25, and TRF26 were individually evaluated for solution phase KD with respect to transferrin by SPR analysis. Because the off rates for these polypeptides were very high, KD values were estimated by measuring steady-state response for at least five concentrations in a two-fold dilution series, each concentration tested in duplicate. For each experiment, response data were processed using a reference surface to correct for bulk refractive index changes and any non-specific binding. Data were also double referenced using responses from blank running buffer injections. Each experiment was conducted at 25° C. using PBST (0.01M Phosphate Buffered Saline, 0.138M NaCl, 0.0027M KCl, 0.05% surfactant Tween20, pH 7.4) as the running buffer on a Biacore T100 instrument. Analytes were injected for 60 s at a flow rate of 30 μl/min. The antigen surfaces were regenerated with 30 s consecutive pulses of NaOH/NaCl (50 mM NaOH in 1M NaCl) and Glycine (10 mM glycine-HCl, pH 2.5).

Transferrin [2] = biological target: T1, Transferrin; assay: Peptide microarray ranking, labeled transferrin with E. coli lysate competitor; format: binding
Procedure: Several polypeptides were identified as candidate affinity elements for synbodies against an arbitrarily chosen protein target, transferrin, by incubating transferrin on the polypeptide microarray in the presence of E. coli lysate competitor. Transferrin was randomly direct-labeled at free amines with Alexa™ 555, and E. coli lysate was randomly direct-labeled at free amines with Alexa™ 647. Three replicate arrays were passivized by applying a mixture of BSA and mercaptohexanol for one hour. The arrays were blocked with unlabelled E. coli lysate for one hour, then washed three times with TBST (0.05% Tween) followed by three times with water. A mixture of labeled transferrin and labeled E. coli lysate was applied to the three replicate arrays and incubated for three hours. The arrays were again washed three times with TBST (0.05% Tween) followed by three times with water, and scanned at 555 nm and 647 nm using an array reader. Polypeptides were ranked as candidates for inclusion as affinity elements of synbodies by computing a score for each polypeptide equal to the mean raw 555 nm intensity over the six replicate features, squared, divided by the mean raw 647 nm intensity over the six replicate features. This simple scoring function tends to favor candidate polypeptides that bind at least moderate affinity, since otherwise the 555 nm intensity would be relatively lower, and that are relatively specific, since otherwise the 647 nm intensity would be relatively higher and contribute to a relatively lower score. Many variations of this ranking and identification process can be used, such as, by way of non-limiting examples, two-color comparisons against other competitors; comparisons with data taken in separate experiments with respect to other targets; and use of scoring functions taking into account other factors, employing other functional relationships, and/or involving statistical analysis and/or preprocessing of data and/or correcting for background fluorescence and/or other factors affecting the accuracy of the measured intensities. Ten polypeptides (Table 1) were identified for further evaluation for use as affinity elements in synbodies by choosing the polypeptides having the highest score (one polypeptide was rejected as difficult to synthesize, so the polypeptides chosen were ten of those having the eleven highest scores).
After preparation of the array in accordance with the methods previously described in Example 2, the array was washed one time for five minutes in 7.33% acetonitrile, 37% isopropanol, 0.55% trifluoroacetic acid, and 55% water. Alexa 555 labeled target protein transferrin was applied, together with Alexa 647 labeled E. coli lysate competitor, to the prewashed array and to an identical array without organic prewash. […] 5,010 on the array without organic prewash, but ranked no. 9601 on the prewashed array. Conversely, peptide TRF-21, shown by SPR analysis to be a relatively strong binder of transferrin, rose in rank from 84 on the non-prewashed array to rank no. 5 on the prewashed array.

Transferrin [3] = biological target: T1, Transferrin; assay: SPR analysis of peptide pairs for binding to distinct sites on target; conditions: peptides applied in 1:1 mixtures in pairs
Excerpt: The transferrin target was immobilized on a Biacore T100 SPR chip, and candidate polypeptides were applied in 1:1 mixtures in pairs and response data obtained, in accordance with the methods described in Example 4 above. As illustrated in FIGS. 12A-D, upon flowing candidate polypeptides over the immobilized target, ideally one polypeptide applied alone would bind to a first binding site on the target and produce a first characteristic SPR response level (FIG. 12A), the other polypeptide would bind to a second, distinct binding site on the target, producing a second characteristic response level (FIG. 12B), and a mixture of the two polypeptides together (at the same concentrations as before) would produce a response level approximating the sum of the response levels produced by each polypeptide alone, as the polypeptides bind to distinct binding sites (FIG. 12C).

TNF-α = TNF-α (Homo sapiens, UniProt P01375); assay: SPR verification of candidate TNF-α binding synbodies (Biacore T-100); conditions: 1.25 μM to 9.8 nM
Chain of TNF-α (P01375 77-233 limits assumed, species assumed): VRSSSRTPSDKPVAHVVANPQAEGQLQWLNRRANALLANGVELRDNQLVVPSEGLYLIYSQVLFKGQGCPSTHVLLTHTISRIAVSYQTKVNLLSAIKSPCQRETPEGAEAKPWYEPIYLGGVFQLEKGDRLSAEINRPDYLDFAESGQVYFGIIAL
Procedure: Candidate TNF-α binding synbodies were screened by surface plasmon resonance (SPR) on a Biacore T-100 SPR instrument to verify binding for TNF-α. A CM5 chip was activated using standard amine coupling chemistry and TNF-α was immobilized. Each synbody was prepared in HBS-N buffer with excess carboxymethyl dextran added to the running buffer to minimize non-specific binding to the chip surface. A concentration series of each synbody was prepared where the concentrations ranged from 1.25 μM to 9.8 nM.

[4] = biological target: Tumor Necrosis Factor-alpha (TNF-α) (Homo sapiens, UniProt P01375); assay: Chromatographic affinity screening on protein-coupled pipette tips with MALDI readout; format: binding; conditions: 500 nM each synbody in E. Coli Lysate
Chain of Tumor Necrosis Factor-alpha (TNF-α) (P01375 77-233 limits assumed, species assumed): as above
Procedure: The target proteins, Transferrin (TRF) and Tumor Necrosis Factor-alpha (TNF-α), were each covalently attached to pipette tips (one protein per pipette tip) containing carboxymethyl dextran matrix (Intrinsic Bioprobes, Tempe, Ariz.) using standard amine coupling chemistry. The unmodified tips were first washed with 0.5 M HCl followed by acetone. Each tip was activated using a 50 mg/mL solution of […] (CDI) in N-methyl-pyrolidone (NMP). Each tip was washed with NMP to remove excess CDI. Each protein was prepared as a 50 μg/mL solution in 100 mM sodium acetate pH 5.0 and cycled through a CDI activated tip for 30 minutes. Un-reacted CDI in the tip was then quenched with the addition of 1.5 M ethanolamine pH 8.5 and then washed extensively with HBS-N buffer. The protein-coupled tips were then stored in HBS-N buffer at 4° C. Negative control tips were prepared in the same manner except that no protein was added to the sodium acetate solution during the protein coupling step.
A library of 14 candidate synbodies (Table 9) was prepared by making 12 μM stock solutions in 1× phosphate buffered saline (PBS) of each HPLC purified synbody and […] of each stock solution was added to 600 μL of E. Coli Lysate that had been treated with a protease inhibitor. Thus the final concentration of each synbody was 500 nM.
A negative control pipette tip (blank tip), a TRF tip, and a TNF-α tip, were washed with 0.1% sodium dodecyl sulfate (SDS) to remove any non-covalently bound protein and then washed with HBS buffer. The tips were then incubated for 15 minutes in 150 μL of the synbody library. Each tip was then washed 5 times in 150 μL of HBS-N. This step was then repeated and each tip was washed 5 times in 150 μL of 0.25 M NaCl. Each tip was then washed 5 times in 150 μL of Milli-Q water and this step was repeated. […]
Each elution sample was spotted onto a MALDI plate and analyzed in reflectron mode on a Bruker Daltonics UltraFlex III TOF/TOF MALDI Mass Spectrometer.

[5] = test system: 8,000 human proteins (GST fusion); assay: Protein microarray screen (Invitrogen Protoarray Human Protein Microarray, 8,000 features); format: binding; conditions: fluorescence intensity
Procedure: Two biotinylated anti-TRF synbodies (SYN23-26 and SYN 21-22) were applied to a protein microarray having 8,000 features (Invitrogen Protoarray Human Protein Microarray v. 4.0 for immune response biomarker profiling), each feature comprising a distinct human protein (GST fusion) adsorbed to a nitrocellulose coated slide. Application of the synbodies to the microarray was performed in accordance with manufacturer instructions: (see ProtoArray Human Protein Microarray, Invitrogen, Catalog no. PAH052401, Version B, 15 Dec. 2006, 25-0970, Users Manual.) After blocking the array with 1% BSA/PBS/0.1% Tween for 1 hour at 4C with gentle shaking, 120 μl of probing buffer (1×PBS, 5 mM mgCl2, 0.5 mM DTT, 0.05% Triton X-100, 5% glycerol, 1% BSA) with synbody was applied to the array. The prescribed cover slip was placed over the array and adjusted to remove air bubbles. The array was incubated in a 50 ml conical tube, printed side up, for 1.5 hours at 4C without shaking. The array was then removed from the conical tube inserted diagonally into the array chamber, kept on ice. 8 ml probing buffer was added to the chamber wall. The cover slip was removed and the array was incubated in probing buffer for 1 minute on ice. […] The array was dried in the dark for 60 minutes at room temperature, after which it was scanned using a fluorescent microarray scanner and data was taken and analyzed.

Substance	binding to TNF-α (sensorgrams) (TNF-α)	MALDI peak in TNF-α tip elution (retention by target) [4]	further results
FRGWAHIFFGPHVIYRGGSC [TRF23]	–	–	pKd (Transferrin [1]): ~4.30; Rank -- prewash (Transferrin [2]; array with organic prewash): 2091; Rank - non-prewash (Transferrin [2]; array without organic prewash): 2722; binding to distinct sites on transferrin (Transferrin [3]): bind distinct sites on transferrin
TNF1-TNF10-KC-stBu: lysine-linked synbody (peptide 1 FRGWAHIFFGPHVIYRGGSGKC(StBu); peptide 2 MKSIIPMSVAQHQGPIKGSG; not fully specified)	relatively strong binding kinetics	showed a peak	–
TNF1-TNF4-KC-stBu: lysine-linked synbody (peptide 1 FMNYPIKVPILVVPIGRGSGKC(StBu); peptide 2 MKSIIPMSVAQHQGPIKGSG; not fully specified)	no binding	no peak was observed	–
I: AHKVVPQRQIRHAYNRYGSGKC / II: FRGWAHIFFGPHVIYRGGSG (amide I:21-II:C) [SYN23-26]	–	–	highest affinity target from a library of 8,000 [5]: PCCA
TNF2-TNF3-KC-stBu: lysine-linked synbody (peptide 1 SMKMVQPGHLLISYGHQGSGKC(StBu); peptide 2 RTTEMPFVFALGSVHPGGSG; not fully specified)	–	showed a peak	–
